Converted amounts (≈) assume the structure as drawn. One block for each compound: values may come before it.
Columns and labels:
[1] = system: P388; assay: Antitumor activity against mouse P388 cells after 48 hrs by MTT assay; type: functional, cell-based; conditions: P388, 48 h
[2] = system: P388; assay: Antitumor activity against mouse P388 cells implanted in CDF1 mouse assessed as decrease in weight change at 4.0 mg/kg, ip; type: functional; parameters: scale not given: the % may be the effect or the level left; conditions: route intraperitoneal
[3] = system: P388; assay: Antitumor activity against mouse P388 cells implanted in CDF1 mouse assessed as decrease in weight change at 0.5 mg/kg, ip; type: functional; parameters: scale not given: the % may be the effect or the level left; conditions: route intraperitoneal
[4] = system: MKN-74; assay: Antitumor activity against human MKN74 cells after 48 hrs by MTT assay; type: functional, cell-based; conditions: MKN-74, 48 h
[5] = system: P388; assay: Antitumor activity against mouse P388 cells implanted in CDF1 mouse assessed as increase in life span at 8.0 mg/kg, ip; type: functional; conditions: route intraperitoneal
[6] = system: P388; assay: Antitumor activity against mouse P388 cells implanted in CDF1 mouse assessed as increase in life span at 1.0 mg/kg, ip; type: functional; conditions: route intraperitoneal
[7] = Antitumor activity against human MKN1 cells after 48 hrs by MTT assay; type: functional, cell-based; conditions: MKN-1, 48 h
[8] = system: P388; assay: Antitumor activity against mouse P388 cells implanted in CDF1 mouse assessed as decrease in weight change at 1.0 mg/kg, ip; type: functional; parameters: scale not given: the % may be the effect or the level left; conditions: route intraperitoneal
[9] = system: P388; assay: Antitumor activity against mouse P388 cells implanted in CDF1 mouse assessed as increase in life span at 4.0 mg/kg, ip; type: functional; conditions: route intraperitoneal
[10] = system: MKN-7; assay: Antitumor activity against human MKN7 cells after 48 hrs by MTT assay; type: functional, cell-based; conditions: MKN-7, 48 h
[11] = system: P388; assay: Antitumor activity against mouse P388 cells implanted in CDF1 mouse assessed as increase in life span at 0.5 mg/kg, ip; type: functional; conditions: route intraperitoneal
[12] = system: P388; assay: Antitumor activity against mouse P388 cells implanted in CDF1 mouse assessed as increase in life span at 2.0 mg/kg, ip; type: functional; conditions: route intraperitoneal
[13] = system: P388; assay: Antitumor activity against mouse P388 cells implanted in CDF1 mouse assessed as decrease in weight change at 8.0 mg/kg, ip; type: functional; parameters: scale not given: the % may be the effect or the level left; conditions: route intraperitoneal
[14] = system: P388; assay: Antitumor activity against mouse P388 cells implanted in CDF1 mouse assessed as decrease in weight change at 2.0 mg/kg, ip; type: functional; parameters: scale not given: the % may be the effect or the level left; conditions: route intraperitoneal

Compound: CC1(C)CCC[C@]2(C)[C@H]3C[C@@H](O)[C@]4(C)[C@H]5OC(=O)C=C5[C@@H](O)C[C@H]4[C@]3(C)CC[C@@H]12
IC50 [1]: > 1 µg/mL

Compound: CC1(C)C(=O)CC[C@]2(C)[C@H]3C[C@@H](O)[C@]4(C)[C@@H]5C(=CC[C@H]4[C@]3(C)CC[C@@H]12)CO[C@H]5O
Activity [2]: 0.9%
Activity [3]: 3%
IC50 [4]: 0.0368 µg/mL (≈ 0.0914 µM)
Activity [5]: 74.4%
Activity [6]: 32.6%
IC50 [7]: 0.0577 µg/mL (≈ 0.143 µM)
IC50 [1]: 0.0145 µg/mL (≈ 0.036 µM)
Activity [8]: 2%
Activity [9]: 51.2%
IC50 [10]: 0.056 µg/mL (≈ 0.139 µM)
Activity [11]: 24.4%
Activity [12]: 31.4%
Activity [13]: 0.4%
Activity [14]: 2.4%

Compound: CC(=O)O[C@@H]1C[C@@H]2[C@@]3(C)CC[C@H](O)C(C)(C)[C@@H]3CC[C@@]2(C)[C@@H]2CC=C3CO[C@@H](O)[C@@H]3[C@@]12C
IC50 [1]: 0.505 µg/mL (≈ 1.13 µM)

Compound: C[C@@H]1C[C@H]1[C@H](C)C[C@@H](O)[C@@]1([C@H]2CC[C@H]3[C@@H]4CC[C@H]5CC(=O)CC[C@]5(C)[C@H]4C[C@@H](O)[C@]23C)CO1 [ARAGUSTEROL A]
IC50 [1]: 0.022 µg/mL (≈ 0.048 µM)

Compound: C[C@H](CC[C@](C)(O)[C@H]1CC[C@H]2[C@@H]3CC[C@H]4CC(=O)CC[C@]4(C)[C@H]3C[C@@H](O)[C@@]21C)[C@H]1C[C@@H]1C [ARAGUSTEROL B]
IC50 [1]: > 3.3 µg/mL

Continued, values first:

IC50 [1]: > 1 µg/mL
Compound: CC(=O)O[C@@H]1C[C@@H]2[C@@]3(C)CCCC(C)(C)[C@@H]3CC[C@@]2(C)[C@@H]2CC=C3C(=O)O[C@@H](O)[C@@H]3[C@@]12C

IC50 [1]: 0.25 µg/mL (≈ 0.618 µM)
Compound: CC1(C)[C@@H](O)CC[C@]2(C)[C@H]3C[C@@H](O)[C@]4(C)[C@@H]5C(=CC[C@H]4[C@]3(C)CC[C@@H]12)CO[C@H]5O

IC50 [1]: > 1 µg/mL
Compound: CC1(C)CCC[C@]2(C)[C@H]3C[C@@H](O)[C@]4(C)[C@@H]5C(=CC[C@H]4[C@]3(C)CC[C@@H]12)CO[C@H]5O

IC50 [1]: 0.041 µg/mL (≈ 0.0828 µM)
Compound: C[C@H](C[C@@H](O)[C@](O)(CCl)[C@H]1CC[C@H]2[C@@H]3CC[C@H]4CC(=O)CC[C@]4(C)[C@H]3C[C@@H](O)[C@]12C)[C@H]1C[C@@H]1C [ARAGUSTEROL C]
